Assay results published in the supplement of paper PMC11061612.

Assays:
[1] = test system: TE-10 (Esophageal Squamous Cell Carcinoma); assay: Bliss excess, mean over the matrix (fraction); higher = more synergy
In short: (§1)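 Bliss excess equals the observed combination effect minus the expected value EA + EB − EA·EB, where EA and EB are the effects of each agent alone. Combination Emax is the second-highest inhibition within the matrix. Inhibition was scaled from CellTiter-Glo 2.0 luminescence, with 0 set by vehicle wells and 1 by blank wells, after 72 hours of two-drug dosing of cells plated in 1536-well plates.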

[2] = test system: 22RV1 (Prostate Carcinoma); assay: combination Emax (second highest fraction inhibited in the dose matrix, 72 h); higher = more inhibition; extreme values may be limits of the assay
In short: as §1

769-P (Kidney Carcinoma) = assay: as above
In short: as §1

COLO-792 (Melanoma) = assay: as above
In short: as §1

EW-16 (Ewing's Sarcoma) = assay: as above
In short: as §1

IM-9 (Non-Cancerous) = assay: as above
In short: as §1

[3] = test system: JIMT-1 (Breast Carcinoma); assay: as above
In short: as §1

[4] = test system: Jurkat (T-Lymphoblastic Leukemia); assay: as above
In short: as §1

KP-N-YN (Neuroblastoma) = assay: as above
In short: as §1

[5] = test system: NCI-H1651 (Lung Adenocarcinoma); assay: as above
In short: as §1

[6] = test system: TE-10 (Esophageal Squamous Cell Carcinoma); assay: as above
In short: as §1

WM1552C (Melanoma) = assay: as above
In short: as §1

Structure (SMILES)	Bliss excess [1]	combination Emax [2]	combination Emax (769-P (Kidney Carcinoma))	combination Emax (COLO-792 (Melanoma))	combination Emax (EW-16 (Ewing's Sarcoma))	combination Emax (IM-9 (Non-Cancerous))	combination Emax [3]	combination Emax [4]	combination Emax (KP-N-YN (Neuroblastoma))	combination Emax [5]	combination Emax [6]	combination Emax (WM1552C (Melanoma))
Cc1c2c(nn1C)CSCc1cc(n(C)n1)CSc1cc(c3ccccc3c1)OCCCc1c(C(=O)O)n(C)c3c-2c(Cl)ccc13 [AZD5991] + Cc1cc2ncnn2cc1Nc1ncc2c(n1)n(C1CCOCC1)c(=O)n2C [AZD7648] (first compound max 1 µM, 7x7, partner max 10 µM)	-0.0057	0.575	0.32	1	0.299	0.561	0.255	0.951	0.228	0.33	0.855	0.71
Cc1c2c(nn1C)CSCc1cc(n(C)n1)CSc1cc(c3ccccc3c1)OCCCc1c(C(=O)O)n(C)c3c-2c(Cl)ccc13 [AZD5991] + Cn1cnc2c(F)c(Nc3ccc(Br)cc3Cl)c(C(=O)NOCCO)cc21 [Selumetinib] (first compound max 1 µM, 7x7, partner max 3 µM)	0.0198	0.498	0.227	1	0.258	0.848	0.284	0.927	0.204	0.218	0.899	0.884
C[C@@H]1COCCN1c1cc(C2([S@](C)(=N)=O)CC2)nc(-c2ccnc3[nH]ccc23)n1 [AZD6738] + O=C(c1cc(Cc2n[nH]c(=O)c3ccccc23)ccc1F)N1CCN(C(=O)C2CC2)CC1 [Olaparib] (first compound max 10 µM, 7x7, partner max 10 µM)	-0.0141	0.631	0.756	0.278	0.808	0.986	0.598	0.965	0.76	0.729	0.78	0.679
COc1cccc2c1C(=O)c1c(O)c3c(c(O)c1C2=O)C[C@@](O)(C(=O)CO)C[C@@H]3O[C@H]1C[C@H](N)[C@H](O)[C@H](C)O1 [Doxorubicin] + Cc1cc2ncnn2cc1Nc1ncc2c(n1)n(C1CCOCC1)c(=O)n2C [AZD7648] (first compound max 1 µM, 7x7, partner max 10 µM)	0.0583	0.805	0.706	0.445	0.913	1	0.697	0.972	0.698	0.712	0.746	0.793
COc1cccc(OCCCN)c1-c1cc(Nc2cnc(C#N)cn2)n[nH]1 [Prexasertib] + C=CCn1c(=O)c2cnc(Nc3ccc(N4CCN(C)CC4)cc3)nc2n1-c1cccc(C(C)(C)O)n1 [AZD1775] (first compound max 1 µM, partner max 1 µM)	0.0262	0.619	0.867	0.593	0.75	1	0.869	1	0.994	0.822	0.976	0.885
COc1cccc(OCCCN)c1-c1cc(Nc2cnc(C#N)cn2)n[nH]1 [Prexasertib] + CCc1c2c(nc3ccc(O)cc13)-c1cc3c(c(=O)n1C2)COC(=O)[C@]3(O)CC [SN-38] (first compound max 1 µM, 7x7, partner max 0.3 µM)	-0.0428	0.727	0.789	0.559	0.984	1	0.87	1	0.985	0.879	0.939	0.833
COc1cccc(OCCCN)c1-c1cc(Nc2cnc(C#N)cn2)n[nH]1 [Prexasertib] + CN(C)CCCOc1ccc(-c2ccc3ncc4c(c3c2)n(C2CCOCC2)c(=O)n4C)cn1 [AZD0156] (first compound max 1 µM, 7x7, partner max 1 µM)	-0.0174	0.532	0.898	0.386	0.516	1	0.869	0.992	0.999	0.677	0.938	0.844
COc1cccc(OCCCN)c1-c1cc(Nc2cnc(C#N)cn2)n[nH]1 [Prexasertib] + C[C@@H]1COCCN1C2=NC(=NC(=C2)C3(CC3)[S@](=N)(=O)C)C4=C5C=CNC5=NC=C4 [AZD6738] (first compound max 1 µM, 7x7, partner max 10 µM)	-0.0244	0.655	0.837	0.351	0.736	1	0.857	0.992	1	0.722	0.945	0.743
COc1cccc(OCCCN)c1-c1cc(Nc2cnc(C#N)cn2)n[nH]1 [Prexasertib] + Cc1cc2ncnn2cc1Nc1ncc2c(n1)n(C1CCOCC1)c(=O)n2C [AZD7648] (first compound max 1 µM, 7x7, partner max 10 µM)	-0.0604	0.575	0.819	0.317	0.558	1	0.864	1	0.992	0.787	0.938	0.763
